# Reference: US20250340565A1, “CD73 INHIBITOR COMPOUNDS” (AdoRx Therapeutics Limited, priority 2022, published 2025)
# Structures can show the parent of a compound that is named as a salt.
# What was measured:
# [1] = target: human (h)CD73 (amino acids Trp27-Lys547) (Homo sapiens, UniProt P21589); assay: CD73 inhibition assay (Malachite Green phosphate detection); format: biochemical; conditions: 250 pM hCD73, 12.5 μM AMP, 20 min pre-incubation, absorbance 620 nm
# Method: Compound inhibition of human (h)CD73 (amino acids Trp27-Lys547, R&D Systems 5795-EN-500) enzymatic activity was tested via the Malachite Green Phosphate Detection Kit (R&D DY996). Experiments were performed in 20 μL Tris buffer (25 mM Tris pH 7.5, 5 mM MgCl2, 0.002% Tween20), with 250 pM of hCD73. Test compounds of interest were prepared in a threefold serial dilution in DMSO and added to the assay to give the appropriate final concentration, with the assay DMSO concentration being 1%. Compounds were pre-incubated for 20 minutes with hCD73 in a 384 well clear plate (Greiner 781101), followed by the addition of adenosine monophosphate (AMP) to 12.5 μM. The enzymatic reaction was carried out for 20 min at room temperature. 5 μL of Malachite kit reagent A was added to stop the reaction (contains 3M H2SO4) and after 10 min, 5 μL of Malachite kit reagent B was added (Malachite Green). After 30 min, absorbance at 620 nm was read on a BMG Pherastar FSX.
# Data were normalised to measurements in the absence of competing compound (0% inhibition) and in the presence of 10 μM control compound (100% inhibition).
# [2] = target: CD73 activity in U138-MG cells (Homo sapiens (Human), UniProt P21589); assay: U138-MG inhibition assay (inorganic phosphate from AMP, PiColorLock Gold); format: cell-based; conditions: 100 μM AMP, 30 min pre-incubation, 1 hour at 37° C.
# Method: U138-MG cells from ATCC are cultured in DMEM (Gibco 31966) with 10% FBS. Cells are seeded into 96-well culture plates (5,000 cell/well) in 100 μL of media for 24 hr. Cells are washed twice with 200 μL of assay buffer (20 mM HEPES, pH 7.4; 137 mM NaCl; 5.4 mM KCl; 1.3 mM CaCl2; 4.2 mM NaHCO3; 1 mg/mL glucose) to remove residual inorganic phosphate. CD73 inhibitor is added to each well in 100 μl volume and preincubated for 30 mins at 37° C. An equal volume of AMP substrate (Sigma A1572) is added to each well at a final concentration of 100 μM and incubated at 37° C. for 1 hour. Control wells containing cells but lacking added AMP, define the assay signal equivalent to 100% inhibition of CD73 activity. Supernatant is removed for measurement of inorganic phosphate using the PiColorLock Gold kit (Abcam, ab 270004).
# The IC50 values of test compounds are determined as the inflection point of the sigmoidal concentration response curve.
# CD73 in whole blood = CD73 in whole blood (Homo sapiens (Human), UniProt P21589); assay: Whole blood AMP Glo assay; format: cell-based; conditions: whole blood of healthy volunteers, 10 μM AMP, 30 min pre-incubation, 15 min at 37° C., levamisole 1.5 mM
# Method: Blood is drawn from healthy volunteers by venepuncture and anti-coagulated with Lithium Heparin (10 IU/mi). 150 μl of blood is added to U-bottom polypropylene 96-well assay plates pre-filled with 20 μl of compound dilutions prepared in RPMI also containing the Tissue Non-specific Alkaline Phosphatase inhibitor Levamisole (final assay concentration 1.5 mM). Control wells to define uninhibited CD73 contain DMSO in place of compound. Control wells to define complete stabilization of AMP attributable to CD73 contain LY3475070 (CAS: 2375815-63-5) at 30 μM final assay concentration.
# Compounds are pre-incubated with whole blood at 37° C. for 30 minutes. Following this, AMP is added in a 30 μl volume for a final assay concentration of 10 μM, mixed, and the plates are incubated for 15 minutes at 37° C. Final DMSO concentration/well is 0.6% and final volume/well is 200 μL. After incubating with AMP, the plates are placed on ice and then centrifuged at 2000 g for 10 minutes at 4° C. Plasma is removed and then diluted 1:10 with pre-chilled HBSS (Ca2+& Mg2+free) and kept on ice.
# The stabilized AMP concentration in diluted plasma is measured using AMP-Glo kit (Promega), in parallel with a standard curve of known AMP concentrations, with a final volume of 40 μl in white flat bottom half-well 96-well plates (Corning). Signal is measured by Luminescence. The IC50 values of test compounds are determined as the inflection point of the sigmoidal concentration response curve.
# Sequence of CD73 in whole blood (P21589 27-574): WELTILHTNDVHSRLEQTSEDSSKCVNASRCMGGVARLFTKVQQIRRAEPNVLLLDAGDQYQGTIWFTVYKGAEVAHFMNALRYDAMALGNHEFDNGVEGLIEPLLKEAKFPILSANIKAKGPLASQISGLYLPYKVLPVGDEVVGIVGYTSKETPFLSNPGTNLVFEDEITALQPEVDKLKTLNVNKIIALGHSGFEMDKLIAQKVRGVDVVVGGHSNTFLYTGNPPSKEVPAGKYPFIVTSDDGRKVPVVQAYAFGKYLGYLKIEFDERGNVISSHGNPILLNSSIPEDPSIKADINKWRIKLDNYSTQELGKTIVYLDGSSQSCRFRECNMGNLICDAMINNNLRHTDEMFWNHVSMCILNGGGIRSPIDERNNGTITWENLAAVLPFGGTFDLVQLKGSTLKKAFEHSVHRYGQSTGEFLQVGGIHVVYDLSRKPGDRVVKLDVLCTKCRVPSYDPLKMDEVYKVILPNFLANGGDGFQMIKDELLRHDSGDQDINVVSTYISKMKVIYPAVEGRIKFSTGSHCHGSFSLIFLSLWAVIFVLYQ
# Sequence of CD73 activity in U138-MG cells (P21589 27-574): as above
smiles,measurement,setting,value
"O=c1[nH]cc(-c2cc3c(N4CCC(OCc5ccccn5)C4)ncnc3s2)c(=O)[nH]1 (stereo not drawn) [Example 4.1, 5-[4-[3-(2-pyridylmethoxy)pyrrolidine-1-yl]thieno[2,3-d]pyrimidin-6-yl]-1H-pyrimidine-2,4-dione formate salt]",IC50,[1],96 nM
same,IC50,[2],428 nM
same,IC50,CD73 in whole blood,782 nM
"CCC1(CC)CCN(c2ncnc3nn(-c4c[nH]c(=O)[nH]c4=O)cc23)C1 [Example 13.7, 5-[4-(3,3-Diethylpyrrolidin-1-yl)pyrazolo[3,4-d]pyrimidin-2-yl]-1H-pyrimidine-2,4-dione]",IC50,[1],73.9 nM
same,IC50,[2],20.9 nM
same,IC50,CD73 in whole blood,7.58 nM
"O=c1[nH]cc(-c2nc3c(N4CCC(OCCN5CCCCC5)C4)ncnc3[nH]2)c(=O)[nH]1 (stereo not drawn) [Example 15, 5-[6-[3-[2-(1-Piperidyl)ethoxy]pyrrolidin-1-yl]-9H-purin-8-yl]-1H-pyrimidine-2,4-dione]",IC50,[1],139 nM
same,IC50,[2],65.6 nM
same,IC50,CD73 in whole blood,56.5 nM
"CC1(C)CN(c2ncnn3cc(-c4c[nH]c(=O)[nH]c4=O)cc23)CC1(F)F [Example 10.2, 5-[4-(3,3-Difluoro-4,4-dimethyl-pyrrolidin-1-yl)pyrrolo[2,1-f][1,2,4]triazin-6-yl]-1H-pyrimidine-2,4-dione]",IC50,[1],130 nM
same,IC50,[2],312 nM
same,IC50,CD73 in whole blood,1590 nM
"O=c1[nH]cc(-n2cc3c(N4CC(F)(F)C5(CCC5)C4)ncc(F)c3n2)c(=O)[nH]1 [Example 26.1, 5-[4-(8,8-difluoro-6-azaspiro[3.4]octan-6-yl)-7-fluoro-pyrazolo[4,3-c]pyridin-2-yl]-1H-pyrimidine-2,4-dione]",IC50,[1],22.9 nM
same,IC50,[2],5 nM
same,IC50,CD73 in whole blood,37 nM
"O=c1[nH]cc(-n2cc3c(N4CC(F)(F)C5(CC5)C4)ncnc3n2)c(=O)[nH]1 [Example 13.1, 5-[4-(7,7-Difluoro-5-azaspiro[2.4]heptan-5-yl)pyrazolo[3,4-d]pyrimidin-2-yl]-1H-pyrimidine-2,4-dione]",IC50,[1],37.1 nM
same,IC50,[2],2.4 nM
same,IC50,CD73 in whole blood,1.15 nM
"O=c1[nH]cc(-n2cc3c(N4CC(F)(F)C5(CC5)C4)ncc(F)c3n2)c(=O)[nH]1 [Example 26.5, 5-[4-(7,7-difluoro-5-azaspiro[2.4]heptan-5-yl)-7-fluoro-pyrazolo[4,3-c]pyridin-2-yl]-1H-pyrimidine-2,4-dione]",IC50,[1],46 nM
same,IC50,[2],14 nM
same,IC50,CD73 in whole blood,254 nM
"CC1(C)CN(c2ncnc3sc(-c4c[nH]c(=O)[nH]c4=O)cc23)CC1(F)F [Example 4, 5-[4-(3,3-Difluoro-4,4-dimethyl-pyrrolidin-1-yl)thieno[2,3-d]pyrimidin-6-yl]-1H-pyrimidine-2,4-dione]",IC50,[1],87.3 nM
same,IC50,[2],734 nM
same,IC50,CD73 in whole blood,4010 nM
"O=c1[nH]cc(-c2cc3c(N4CC(OCCN5CCCCC5)C(F)(F)C4)ncnn3c2)c(=O)[nH]1 (stereo not drawn) [Example 17, 5-[4-[3,3-Difluoro-4-[2-(1-piperidyl)ethoxy]pyrrolidin-1-yl]pyrrolo[2,1-f][1,2,4]triazin-6-yl]-1H-pyrimidine-2,4-dione formate salt]",IC50,[1],59.4 nM
same,IC50,[2],108 nM
same,IC50,CD73 in whole blood,119 nM
"O=c1[nH]cc(-c2cc3c(N4CCC(CO)C4)ncnc3s2)c(=O)[nH]1 (stereo not drawn) [Example 1, 5-[4-[3-(Hydroxymethyl)pyrrolidin-1-yl]thieno[2,3-d]pyrimidin-6-yl]-1H-pyrimidine-2,4-dione]",IC50,[1],715 nM
same,IC50,[2],2340 nM
same,IC50,CD73 in whole blood,8750 nM
"O=c1[nH]cc(-n2cc3c(N4C[C@H]5CCC[C@H]5C4)ncnc3n2)c(=O)[nH]1 [Example 13.4, 5-[4-[(3aR,6aS)-3,3a,4,5,6,6a-Hexahydro-1H-cyclopenta[c]pyrrol-2-yl]pyrazolo[3,4-d]pyrimidin-2-yl]-1H-pyrimidine-2,4-dione]",IC50,[1],95 nM
same,IC50,[2],35.3 nM
same,IC50,CD73 in whole blood,14.1 nM
"CN1CCOC(COC2CCN(c3ncnc4sc(-c5c[nH]c(=O)[nH]c5=O)cc34)C2)C1 (stereo not drawn) [Example 4.4, 5-[4-[3-[(4-Methylmorpholin-2-yl)methoxy]pyrrolidine-1-yl]thieno[2,3-d]pyrimidin-6-yl]-1H-pyrimidine-2,4-dione]",IC50,[1],74.3 nM
same,IC50,[2],76.6 nM
same,IC50,CD73 in whole blood,254 nM
"CC1(C)CN(c2ncc(F)c3nn(-c4c[nH]c(=O)[nH]c4=O)cc23)CC1(F)F [Example 26, 5-[4-(3,3-Difluoro-4,4-dimethyl-pyrrolidin-1-yl)-7-fluoro-pyrazolo[4,3-c]pyridin-2-yl]-1H-pyrimidine-2,4-dione]",IC50,[1],55.6 nM
same,IC50,[2],2.9 nM
same,IC50,CD73 in whole blood,16 nM
"O=c1[nH]cc(-c2cc3c(N4CCC(OCCN5CCCCC5)C4)ncnc3s2)c(=O)[nH]1 (stereo not drawn) [Example 2, 5-[4-[3-[2-(1-Piperidyl)ethoxy]pyrrolidin-1-yl]thieno[2,3-d]pyrimidin-6-yl]-1H-pyrimidine-2,4-dione]",IC50,[1],11.1 nM
same,IC50,[2],46.1 nM
same,IC50,CD73 in whole blood,47 nM
"O=c1[nH]cc(-c2cc3c(N4CC(OCCN5CCCCC5)C(F)(F)C4)ncnc3s2)c(=O)[nH]1 (stereo not drawn) [Example 5, 5-[4-[3,3-Difluoro-4-[2-(1-piperidyl)ethoxy]pyrrolidine-1-yl]thieno[2,3-d]pyrimidin-6-yl]-1H-pyrimidine-2,4-dione formate salt]",IC50,[1],32 nM
same,IC50,[2],179 nM
same,IC50,CD73 in whole blood,184 nM
"O=c1[nH]cc(-n2cc3c(N4CC(F)(F)C5(CCC5)C4)ncnc3n2)c(=O)[nH]1 [Example 13.2, 5-[4-(8,8-Difluoro-6-azaspiro[3.4]octan-6-yl)pyrazolo[3,4-d]pyrimidin-2-yl]-1H-pyrimidine-2,4-dione]",IC50,[1],60.7 nM
same,IC50,[2],2.1 nM
same,IC50,CD73 in whole blood,1.13 nM
"CC1(C)CN(c2ncc(C(F)(F)F)n3nc(-c4c[nH]c(=O)[nH]c4=O)cc23)CC1(F)F [Example 25.9, 5-[4-(3,3-difluoro-4,4-dimethyl-pyrrolidin-1-yl)-7-(trifluoromethyl)pyrazolo[1,5-a]pyrazin-2-yl]-1H-pyrimidine-2,4-dione]",IC50,[1],58 nM
same,IC50,[2],22 nM
same,IC50,CD73 in whole blood,18000 nM
"O=c1[nH]cc(-c2cc3c(N4CC(F)(F)C5(CCCC5)C4)ncnc3o2)c(=O)[nH]1 [Example 19.1, 5-[4-(4,4-Difluoro-2-azaspiro[4.4]nonan-2-yl)furo[2,3-d]pyrimidin-6-yl]-1H-pyrimidine-2,4-dione]",IC50,[1],96.2 nM
same,IC50,[2],104 nM
same,IC50,CD73 in whole blood,1990 nM
"O=c1[nH]cc(-c2cc3c(N4CC(O)C(F)(F)C4)ncc(Cl)n3n2)c(=O)[nH]1 (stereo not drawn) [Example 25.13, 5-[7-Chloro-4-(3,3-difluoro-4-hydroxy-pyrrolidin-1-yl)pyrazolo[1,5-a]pyrazin-2-yl]-1H-pyrimidine-2,4-dione]",IC50,[2],12 nM
same,IC50,CD73 in whole blood,5 nM
"Cc1cnc(N2CC(C)(C)C(F)(F)C2)c2cc(-c3c[nH]c(=O)[nH]c3=O)nn12 [Example 25.11, 5-[4-(3,3-difluoro-4,4-dimethyl-pyrrolidin-1-yl)-7-methyl-pyrazolo[1,5-a]pyrazin-2-yl]-1H-pyrimidine-2,4-dione]",IC50,[2],23 nM
same,IC50,CD73 in whole blood,200 nM
"CC1(C)CCN(c2ncc(F)n3nc(-c4c[nH]c(=O)[nH]c4=O)cc23)C1 [Example 25.17, 5-[4-(3,3-dimethylpyrrolidin-1-yl)-7-fluoro-pyrazolo[1,5-a]pyrazin-2-yl]-1H-pyrimidine-2,4-dione]",IC50,[2],39 nM
same,IC50,CD73 in whole blood,450 nM
